Measured values reported in PubChem BioAssay (NCI).
Several values for one entry are separate records, joined by “and”; a condition that tells them apart may be missing. Identical values can stand only once.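 The compound was tested at five concentrations on cells cultured in 96-well plates, with a 48-hour exposure period. Here, GI50 denotes the concentration required for 50% inhibition of growth. TGI: concentration producing complete growth inhibition.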

Tests used:
Experiment in all cases: inhibition of tumour cell growth, NCI panel, 48 h
CAKI-1 renal = test system: CAKI-1 renal
EKVX NSCLC = test system: EKVX NSCLC
HT29 colon = test system: HT29 colon
K-562 leukemia = test system: K-562 leukemia
LOX IMVI melanoma = test system: LOX IMVI melanoma
MALME-3M melanoma = test system: MALME-3M melanoma
MDA-MB-435 = test system: MDA-MB-435
NCI-H460 lung = test system: NCI-H460 lung
UACC-257 melanoma = test system: UACC-257 melanoma
UACC-62 melanoma = test system: UACC-62 melanoma

| SMILES | TGI (CAKI-1 renal) | TGI (EKVX NSCLC) | TGI (HT29 colon) | TGI (K-562 leukemia) | TGI (LOX IMVI melanoma) | TGI (MALME-3M melanoma) | TGI (MDA-MB-435) | TGI (NCI-H460 lung) | TGI (UACC-257 melanoma) | TGI (UACC-62 melanoma) | GI50 (CAKI-1 renal) | GI50 (EKVX NSCLC) | GI50 (HT29 colon) | GI50 (K-562 leukemia) | GI50 (MALME-3M melanoma) | GI50 (MDA-MB-435) | GI50 (NCI-H460 lung) | GI50 (UACC-257 melanoma) | GI50 (UACC-62 melanoma) | GI50 (LOX IMVI melanoma) |
| --- | --- | --- | --- | --- | --- | --- | --- | --- | --- | --- | --- | --- | --- | --- | --- | --- | --- | --- | --- | --- |
| OC1C=C2C3CN(Cc4cc5c(cc43)OCO5)[C@H]2C[C@@H]1O (stereo partly specified) | 29.7 µM | 28.6 µM | 46.3 µM | > 100 µM | > 100 µM | > 100 µM | 24.7 µM | 13.2 µM | 9.29 µM | 68.4 µM |  |  |  |  |  |  |  |  |  |  |
| O=C1CCC(NC(=O)Cc2ccc(O)cc2)C(=O)N1 (stereo unspecified) | > 2500 µM | > 2500 µM | > 2500 µM |  | > 2500 µM |  |  | > 2500 µM | > 2500 µM | > 2500 µM |  |  |  |  |  |  |  |  |  |  |
| O=C(O)C(Cc1ccccc1)N1C(=O)c2ccccc2C1=O (stereo unspecified) | > 100 µM | > 100 µM | > 100 µM | > 100 µM | > 100 µM | > 100 µM | > 100 µM | > 100 µM | > 100 µM | > 100 µM |  |  |  |  |  |  |  |  |  |  |
| N=C(N)C(N=Nc1ccccc1)C(=N)N (stereo unspecified) | > 100 µM | > 100 µM | > 100 µM | 99.1 µM | > 100 µM | > 100 µM | 42.7 µM | > 100 µM | > 100 µM | > 100 µM |  |  |  |  |  |  |  |  |  |  |
| O=C1CC(N2C(=O)/C(=C/C(Cl)=C\c3ccc([N+](=O)[O-])cc3)SC2=S)C(=O)N1c1ccc(Cl)cc1 (stereo unspecified) | 3.28 µM | > 100 µM | 4.6 µM | 11.6 µM |  | 11.6 µM | 3.39 µM | > 100 µM | 66.5 µM | 4.3 µM | 1.13 µM | 3.11 µM | 0.632 µM | 0.692 µM | 3.09 µM | 1.65 µM | 3.3 µM | 2.92 µM | 1.77 µM |  |
| N#CCc1[nH]nc2nc(SCc3ccccc3)nc(N3CCCCC3)c12 | 34.6 µM | 39.5 µM | 41.4 µM | 34.6 µM | 43 µM | 41.8 µM | 35 µM | 37.9 µM | 35.7 µM |  |  |  |  |  |  |  |  |  |  |  |
| CCn1cc(C(=O)O)c(=O)c2cc(F)c(N3CCN(Cn4c(O)c(N=NC(=O)c5ccncc5)c5cc(Cl)ccc54)CC3)cc21 | 72.8 µM | > 100 µM | > 100 µM | > 100 µM | > 100 µM | > 100 µM | > 100 µM | > 100 µM | > 100 µM | > 100 µM |  |  |  |  |  |  |  |  |  |  |
| O=C1c2ccccc2-c2ccc(O)cc21 | 37.8 µM | 37.8 µM | > 100 µM | 94.7 µM | 97.5 µM | 49.2 µM | 59.6 µM | 76.3 µM | 49.1 µM | 30.9 µM |  |  |  |  |  |  |  |  |  |  |
| C=C1C(C2(C)C=CC(=O)OC3(C)COC(=O)CC32)C(OC=O)C(OC(=O)C(O)C(C)CC)C2(C)C(c3ccoc3)CC(OC(C)=O)C12O (stereo unspecified) | > 100 µM | > 100 µM | > 100 µM | > 100 µM | 88.2 µM |  | > 100 µM | > 100 µM | > 100 µM | > 100 µM |  |  |  |  |  |  |  |  |  |  |
| O=c1c2c([nH]c3nccn13)CCCC2 | > 10 µM | > 10 µM | > 10 µM |  | > 10 µM | > 10 µM | > 10 µM | > 10 µM |  | > 10 µM |  |  |  |  |  |  |  |  |  |  |
| CC(=O)C1=C(O)C2(O)C(=O)c3c(c(C)c4ccc(C)c(O)c4c3O)CC2C(N)C1=O (stereo unspecified) | 7.99 µM | 12.2 µM | 12.3 µM | 12.2 µM | 11.4 µM | 4.74 µM | 4.86 µM | 9.2 µM | 11.9 µM | 5.25 µM |  |  |  |  |  | 1.11 µM |  |  |  |  |
| CCC(C)C(NC(=O)C(CCCCN)NC(=O)C(NC(=O)C(CCC(N)=O)NC(=O)C(CCCNC(=N)N)NC(C)=O)C(C)CC)C(=O)NC(Cc1c[nH]c2ccccc12)C(=O)NC(Cc1ccccc1)C(=O)NC(CCC(N)=O)C(=O)NC(CC(N)=O)C(=O)NC(CCCNC(=N)N)C(=O)NC(CCCNC(=N)N)C(=O)NC(CCSC)C(=O)NC(CCCCN)C(=O)NC(Cc1c[nH]c2ccccc12)C(=O)NC(CCCCN)C(=O)NC(CCCCN)C(N)=O (stereo unspecified) | > 50 µM | > 50 µM | > 50 µM | > 50 µM | > 50 µM | > 50 µM | > 50 µM | > 50 µM | > 50 µM | > 50 µM |  |  |  |  |  |  |  |  |  |  |
| O=C(NN1C(=O)/C(=C/c2ccc(Cl)cc2)N=C1c1ccccc1)c1c(Cl)c(Cl)c(Cl)c(Cl)c1-c1nc2ccccc2[nH]1 | 78.8 µM | > 100 µM | > 100 µM | 50 µM | 62.8 µM | 54.6 µM | 11.6 µM | 16.2 µM |  | 30.9 µM |  |  |  |  |  |  |  |  |  |  |
| Cc1c(Cl)c(=O)oc2cc(OCC(=O)c3ccccc3)ccc12 | > 100 µM | > 100 µM | > 100 µM | > 100 µM |  | > 100 µM | > 100 µM | > 100 µM | > 100 µM | > 100 µM |  |  |  |  |  |  |  |  |  |  |
| C[N+]1(C)C2CCC1CC(OC(=O)C(CO)c1ccccc1)C2 (stereo unspecified) | > 100 µM | > 100 µM | > 100 µM | > 100 µM | > 100 µM | > 100 µM | > 100 µM |  | > 100 µM | > 100 µM |  |  |  |  |  |  |  |  |  |  |
| O=C1OC(c2ccccc2)=N/C1=C/c1cccs1 |  | > 100 µM | > 100 µM | > 100 µM |  |  | > 100 µM | > 100 µM | > 100 µM |  |  |  |  |  |  |  |  |  |  |  |
| Cc1nc(Cl)c(C)c(Cl)n1 | 0.0695 µM | > 50.9 µM | > 100 µM | > 91.9 µM | > 100 µM | > 100 µM | > 100 µM | > 100 µM | > 100 µM | > 100 µM |  |  |  |  |  |  |  |  |  |  |
| CC(=O)C1(c2ccccc2)CCCN(C)CC1 (stereo unspecified) | > 100 µM |  | > 100 µM |  | > 100 µM | > 100 µM | > 100 µM | > 100 µM | > 100 µM | > 100 µM |  |  |  |  |  |  |  |  |  |  |
| Cc1c(N)nc([C@H](CC(N)=O)NC[C@H](N)C(N)=O)nc1C(=O)N[C@H](C(=O)N[C@H](C)[C@@H](O)[C@H](C)C(=O)N[C@H](C(=O)NCCc1nc(-c2nc(C(=O)NCCC[S+](C)C)cs2)cs1)[C@@H](C)O)C(OC1OC(CO)C(O)C(O)C1OC1OC(CO)C(O)C(OC(N)=O)C1O)c1cnc[nH]1 (stereo partly specified) |  | 22 µM and 25 µM | 25 µM and 29 µM and > 100 µM |  | 5.32 µM and 1.89 µM and 1.51 µM | 9.03 µM and 22.9 µM and 20.7 µM | 25 µM and > 100 µM | 13.1 µM and 7.63 µM and 31.6 µM | 24.6 µM and > 100 µM |  |  | 25 µM |  |  | 0.75 µM and 1.65 µM | 25.3 µM |  | 27.5 µM |  | 0.0661 µM |
| O=C1CC(n2cccc2)c2cc(Br)sc21 (stereo unspecified) | > 100 µM | > 100 µM | > 100 µM | > 100 µM | > 100 µM | > 100 µM | > 100 µM | > 100 µM | > 100 µM | > 100 µM |  |  |  |  |  |  |  |  |  |  |
| CN1CCC23c4ccccc4NC1C21CCN(C)C3Nc2ccccc21 | > 164 µM | > 375 µM | > 375 µM | > 187 µM | > 375 µM | > 337 µM |  | > 375 µM | 231 µM | > 375 µM |  |  |  |  |  |  |  |  |  |  |
| Cc1c2c(cc3c1[nH]c1ccccc13)C(c1ccc(F)cc1)=NCC2 | 4.79 µM | 9.02 µM | 4.2 µM | 5.93 µM | 3.02 µM | 4.91 µM |  | 2.45 µM | 2.46 µM | 2.77 µM |  |  |  |  |  |  |  |  |  |  |
| OC(c1ccc(-c2ccccc2)cc1)(c1ccc(-c2ccccc2)cc1)c1ccc(-c2ccccc2)cc1 | > 100 µM | > 100 µM | > 100 µM | > 100 µM | > 100 µM |  | > 100 µM | > 100 µM | > 100 µM | > 100 µM |  |  |  |  |  |  |  |  |  |  |
| CCCCC1Cc2cc(OC)ccc2-c2nc3cc(OC)ccc3n21 (stereo unspecified) (tested in a mixture with another compound) | 38.8 µM | 25.2 µM | 22.5 µM | 36.8 µM | 30 µM | 34.9 µM | 26.3 µM | 28.7 µM | 29.9 µM | 25.5 µM |  |  |  |  |  |  |  |  |  |  |
| COC1(OC)C[C@H](C)[C@@]23O[C@]24c2cc(O)c5c(c2N[C@H]3C#C/C=C\C#C[C@]14O)C(=O)c1ccccc1C5=O | 0.00561 µM and 0.00653 µM | 0.213 µM and 0.202 µM |  | 0.101 µM and 0.201 µM | 0.049 µM |  | 0.139 µM and 0.175 µM |  | 0.0789 µM and 0.0505 µM | 0.0359 µM and 0.0324 µM | < 0.001 µM | 0.0527 µM | 0.0226 µM | 0.00399 µM | < 0.001 µM | 0.0184 µM | 0.005 µM | 0.00624 µM | 0.00204 µM |  |
| C=CCOCCCC(=O)C(=[N+]=[N-])C(=O)OC | > 100 µM |  | > 100 µM | > 100 µM | > 100 µM | > 100 µM |  | > 100 µM | > 100 µM | > 100 µM |  |  |  |  |  |  |  |  |  |  |
| O=C1c2scnc2-c2nccc3c2c1nc1ccccc13 | 3.83 µM | > 20.2 µM | > 19.9 µM | > 100 µM | 0.508 µM | 1.51 µM | 0.307 µM | 1.58 µM | 1.69 µM | 1.45 µM |  |  |  |  |  |  |  |  |  |  |
| Cc1cc(C)n(C(=O)C(C)Sc2nnc(SC(C)C(=O)n3nc(C)cc3C)s2)n1 (stereo unspecified) | > 100 µM | > 100 µM | > 100 µM | > 100 µM | > 100 µM | > 100 µM | > 100 µM | > 100 µM | > 100 µM | > 100 µM |  |  |  |  |  |  |  |  |  |  |
